This passage reports IC50, EC50 and AC50 results from ChEMBL document CHEMBL1201862, “PubChem BioAssay data set” (2004).

Broadly, the AC50 is the concentration at which the activity in the assay is half-maximal.

Activity calls are given as the source filed them.

A short description of one experiment: cells. Type of experiment: functional.
Experiment [1] has as its target T1, Corticotropin-releasing factor receptor 2/Corticotropin-releasing factor-binding protein (Homo sapiens, UniProt P24387+Q13324).
T1 sequence (Q13324 whole entry): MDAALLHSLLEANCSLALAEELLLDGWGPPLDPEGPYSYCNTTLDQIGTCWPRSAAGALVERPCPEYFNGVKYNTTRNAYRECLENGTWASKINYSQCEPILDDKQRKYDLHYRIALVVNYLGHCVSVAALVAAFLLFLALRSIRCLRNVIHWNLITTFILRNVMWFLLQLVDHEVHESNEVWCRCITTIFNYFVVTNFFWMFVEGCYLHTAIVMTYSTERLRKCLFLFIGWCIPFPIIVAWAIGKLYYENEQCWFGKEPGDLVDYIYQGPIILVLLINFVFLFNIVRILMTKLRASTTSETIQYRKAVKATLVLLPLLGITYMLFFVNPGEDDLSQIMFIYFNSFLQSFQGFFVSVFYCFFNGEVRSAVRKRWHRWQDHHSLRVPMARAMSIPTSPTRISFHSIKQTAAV
T1 sequence (P24387 whole entry): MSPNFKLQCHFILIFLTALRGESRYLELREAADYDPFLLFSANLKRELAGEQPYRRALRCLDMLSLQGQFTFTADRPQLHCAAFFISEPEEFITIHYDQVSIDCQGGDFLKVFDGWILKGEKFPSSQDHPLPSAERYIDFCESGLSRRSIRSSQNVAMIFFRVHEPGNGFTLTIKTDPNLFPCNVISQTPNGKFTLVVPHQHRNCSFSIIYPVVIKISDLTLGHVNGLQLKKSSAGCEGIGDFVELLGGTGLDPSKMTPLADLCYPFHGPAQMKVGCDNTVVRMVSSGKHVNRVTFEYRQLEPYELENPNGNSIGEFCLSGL
The experiment in a line: Dose Response confirmation of uHTS hits for small molecule antagonists of the CRF-binding protein and CRF-R2 receptor complex. Type of experiment: functional. The following applies: read-out: IC50_Mean.

Experiment [2] deals with T1, Corticotropin-releasing factor receptor 2/Corticotropin-releasing factor-binding protein. The experiment in a line: activators of CRF receptor 2 with binding protein – uHTS hits, confirmation (AID 602473). Type of experiment: functional. The following applies: read-out: EC50_Mean.
Experiment [3] in a line: growth suppression of PTEN-null colon cells, dose response, cell-based, HCT116 PTEN knockout (AID 1047).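 Further: HCT116 colon tumor cells with PTEN knocked out; cells exposed to compound for 60 hours before readout; potency for loss of cell viability measured by luminescence.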 Type of experiment: functional.
A short description of experiment [4]: growth suppression of beta-catenin-knockout colon cells, dose response, cell-based, HCT116, human colon tumor (AID 1045).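 Further: HCT116 colon tumor cells with beta catenin knocked out; cells exposed to compound for 60 hours.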 Type of experiment: functional.
Another experiment deals with T2, Cytochrome P450 1A2 (Homo sapiens, UniProt P05177).
T2 sequence (P05177 whole entry): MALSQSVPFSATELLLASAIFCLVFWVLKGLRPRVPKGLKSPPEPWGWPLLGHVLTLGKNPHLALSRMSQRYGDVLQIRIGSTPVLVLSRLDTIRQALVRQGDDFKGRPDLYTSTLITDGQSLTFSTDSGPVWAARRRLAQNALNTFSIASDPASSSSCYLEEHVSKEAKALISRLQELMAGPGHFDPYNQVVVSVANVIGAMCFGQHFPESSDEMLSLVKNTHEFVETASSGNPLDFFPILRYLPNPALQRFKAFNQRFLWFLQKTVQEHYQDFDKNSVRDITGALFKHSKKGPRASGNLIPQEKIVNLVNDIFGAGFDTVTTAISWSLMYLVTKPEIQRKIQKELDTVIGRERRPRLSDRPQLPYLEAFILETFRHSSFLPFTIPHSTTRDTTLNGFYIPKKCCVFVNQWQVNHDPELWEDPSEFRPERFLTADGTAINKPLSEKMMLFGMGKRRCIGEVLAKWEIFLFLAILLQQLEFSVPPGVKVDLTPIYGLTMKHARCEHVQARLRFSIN

A further experiment relates to INS1. The experiment in a line: beta cell apoptosis inhibitors, cytokine rescue, dose response, luminescence, retest (AID 449756).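 Further: cell death triggered by IL-1 beta plus TNF-alpha plus IFN-gamma mixture; protective hits raise ATP signal compared with cytokine alone wells.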 Type of experiment: functional, cell-based. The following applies: Rattus norvegicus.
Experiment [5] has as its target T3, Heat shock factor protein 1 (Mus musculus, UniProt P38532).
T3 sequence (P38532 whole entry): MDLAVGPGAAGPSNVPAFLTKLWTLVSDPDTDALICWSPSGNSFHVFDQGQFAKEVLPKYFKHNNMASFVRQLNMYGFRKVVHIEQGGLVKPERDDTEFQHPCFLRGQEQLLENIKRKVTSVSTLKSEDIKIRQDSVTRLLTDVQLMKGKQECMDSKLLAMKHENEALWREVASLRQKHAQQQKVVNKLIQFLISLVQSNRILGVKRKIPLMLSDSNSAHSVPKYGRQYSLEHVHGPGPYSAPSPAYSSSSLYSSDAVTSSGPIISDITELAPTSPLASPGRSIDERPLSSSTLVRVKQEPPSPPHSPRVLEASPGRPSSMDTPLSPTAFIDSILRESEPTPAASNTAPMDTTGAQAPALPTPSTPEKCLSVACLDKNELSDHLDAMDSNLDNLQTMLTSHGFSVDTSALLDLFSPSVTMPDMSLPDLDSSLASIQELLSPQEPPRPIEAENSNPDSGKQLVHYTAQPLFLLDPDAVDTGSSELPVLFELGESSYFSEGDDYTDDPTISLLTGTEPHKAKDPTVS
The experiment in a line: inhibition of MG132-induced HSE-luciferase signal, confirmation, cell-based, NIH3T3, luminescence, dose retest (AID 2382).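 Further: NIH3T3 fibroblasts with HSF1-driven luciferase reporter stressed by proteasome inhibitor MG132; luminescence from HSF1-driven luciferase expression after 8 hours of MG132 stress.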 Type of experiment: functional.

For experiment [6], the target named is T4, Rac GTPase-activating protein 1 (Homo sapiens, UniProt Q9H0H5).
T4 sequence (Q9H0H5 whole entry): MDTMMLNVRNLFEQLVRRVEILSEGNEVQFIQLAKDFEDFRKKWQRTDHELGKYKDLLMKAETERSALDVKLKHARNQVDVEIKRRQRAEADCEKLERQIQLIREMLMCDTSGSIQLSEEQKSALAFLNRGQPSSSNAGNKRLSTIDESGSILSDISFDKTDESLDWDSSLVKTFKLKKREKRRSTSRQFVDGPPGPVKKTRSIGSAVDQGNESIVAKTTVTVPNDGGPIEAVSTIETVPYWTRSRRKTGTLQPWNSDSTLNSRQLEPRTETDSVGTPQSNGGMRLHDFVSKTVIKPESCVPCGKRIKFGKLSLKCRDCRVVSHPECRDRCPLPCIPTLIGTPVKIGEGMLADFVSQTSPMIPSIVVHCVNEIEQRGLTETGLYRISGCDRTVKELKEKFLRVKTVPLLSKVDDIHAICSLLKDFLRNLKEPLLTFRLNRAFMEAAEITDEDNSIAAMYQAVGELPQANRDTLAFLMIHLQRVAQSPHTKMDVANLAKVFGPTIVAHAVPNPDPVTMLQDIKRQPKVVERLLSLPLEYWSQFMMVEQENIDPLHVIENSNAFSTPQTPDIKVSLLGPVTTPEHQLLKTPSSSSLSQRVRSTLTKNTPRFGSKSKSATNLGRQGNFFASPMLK
The experiment in a line: MgcRacGAP GTPase-activating activity inhibitors, confirmation, biochemical, ADP Hunter fluorescence, primary and confirmatory (AID 624330). Type of experiment: functional.

Take `O=C(CC1CCCC1)OCn1nnc2ccccc2c1=O`: the IC50 in the experiment “cells” is 11.1 µM (active).
Take `CC(C)CCOP(=O)(c1ccc(N(C)C)cc1)C(Nc1ccccc1)c1ccc(N(C)C)cc1` (configuration not stated): the IC50 in experiment [1] was > 47.1 µM (inactive). Moreover, the EC50 in experiment [2] is > 53 µM (inactive).
The matching figures for `CCOC(=O)c1c(C)[nH]c(C)c1C(=O)COC(=O)/C=C/c1ccc(Cl)cc1`: > 47.1 µM (inactive) and > 53 µM (inactive).
`Cc1cc2nc(-c3ccc(SCC(=O)N4CCc5ccccc54)nc3)[nH]c2cc1C`: the EC50 in [3] was 6.92 µM (active); in experiment [4] it was 7.55 µM (active). Besides, the AC50 at Cytochrome P450 1A2 was 3.16 µM (inconclusive).
As to `COc1ccc(C2CC(c3cccs3)=NN2C(=O)c2ccccc2)cc1OC` (configuration not stated), the IC50 in experiment [1] is > 47.1 µM (inactive). Further, the EC50 in experiment [2] is > 53 µM (inactive).
In the case of `CSCSC1=C(C#N)C(c2ccccc2Cl)C(C(C)=O)=C(C)N1` (configuration not stated), the IC50 in experiment [1] is > 47.1 µM (inactive). For the same compound, the EC50 in [2] is > 53 µM (inactive).
For the compound `CCc1nn2cc(C(=O)c3cc(Cl)ccc3O)cnc2c1-c1ccc(F)cc1`, the EC50 in experiment [3] is 30.7 µM (active); in experiment [4] it was 28.3 µM (active).
Regarding `COC(=O)c1ccc(/C(O)=C(\C#N)c2nc3ccccc3s2)cc1`, the IC50 in experiment [1] was 3.93 µM (active). In experiment [2], the EC50 is > 53 µM (inactive).
In the same order, the values of `Cc1ccc(S(=O)(=O)N2CCC(c3nc4c(nnn4Cc4ccccc4)c(=O)[nH]3)CC2)cc1` are > 47.1 µM (inactive) and > 53 µM (inactive).
On to `Cc1ccc(/C=C2\SC(N3CCCC3)=NC2=O)cc1`, for which the IC50 in the experiment “cells” is 5.13 µM (active).
On to `CC1CCN(C(=O)c2nc[nH]c2C(=O)N[C@@H](C)C(=O)OC(C)(C)C)CC1`, for which the IC50 in experiment [1] is > 47.1 µM (inactive). Moreover, the EC50 in [2] was > 53 µM (inactive).
On to `O=[N+]([O-])c1ccccc1C=NNC(=S)NN=Cc1ccccc1[N+](=O)[O-]`, for which the IC50 in [1] was > 47.1 µM (inactive). In experiment [2], the EC50 was > 53 µM (inactive).
`CCCCOC(=O)c1ccc(NC(c2ccc(C)cc2)P(=O)(OC)OC)cc1` (configuration not stated): the AC50 in the experiment on INS1 was 30.8 µM (active). In addition, in experiment [1], the IC50 is > 47.1 µM (inactive). Moreover, in experiment [2], the EC50 is > 53 µM (inactive).
`O=C(COC(=O)c1cc(Br)ccc1Cl)NC1CCCC1`: in the experiment “cells”, the IC50 is 18.2 µM (active).
For `CC1=C(C(=O)Nc2ccccc2C)C(c2ccc(C)o2)n2c(s/c(=C/c3ccccc3)c2=O)=N1` (configuration not stated), the values for the EC50 in experiment [3] and in experiment [4] were 347 µM (active) and 442 µM (active), respectively.
Regarding `O=[N+]([O-])c1ccc(CN2CCN(c3ccccc3)CC2)o1`, the IC50 in “cells” is 0.13 µM (active).
Take `Cc1cccc2sc(NNC(=O)C3COc4ccccc4O3)nc12` (configuration not stated): the EC50 is > 195 µM (not active) in experiment [5], 38.9 µM (active) in [3] and 36.7 µM (active) in experiment [4].
On to `CN(C)c1ncnc2c1N=C1CC(C)(C)CC(NCCCC(=O)O)=C1S2`, for which the figures for the IC50 in experiment [1] and in experiment [6] were > 47.1 µM (inactive) and 78.8 µM (active), respectively. For the same compound, in experiment [2], the EC50 was > 53 µM (inactive).
Take `COc1cccc(OC(=O)c2cc3ccccc3oc2=O)c1`: in the experiment “cells”, the IC50 is > 50 µM (active).
For `COc1ccc(N2C(=O)/C(=C\NNS(=O)(=O)c3ccc(C)cc3)c3ccccc3C2=O)cc1OC`, the EC50 in experiment [3] is 40.4 µM (active); in [2], > 53 µM (inactive).
Turning to `CN(C(=O)COC(=O)c1ccc([N+](=O)[O-])cc1Cl)C1CCCCC1`, the IC50 in “cells” is 6.26 µM (active).
For `Cc1nn(-c2ccc([N+](=O)[O-])cc2)c(N)c1-c1ccccc1`, in experiment [1], the IC50 is > 47.1 µM (inactive). The EC50 in [2] is > 53 µM (inactive).
In the same order, the values of `CC1C(=O)C(C)C(c2cccs2)NC1c1cccs1` (configuration not stated) are > 47.1 µM (inactive) and > 53 µM (inactive).
In the same order, the values of `FC(F)(F)c1nnc2sc(-c3cccs3)nn12` are > 47.1 µM (inactive) and > 53 µM (inactive).
For `CCN(CC(=O)Nc1ccc(OC)cc1)C(=O)c1cc(S(=O)(=O)N2CCOCC2)ccc1N1CCCC1`, the IC50 in experiment [1] was > 47.1 µM (inactive). Further, the EC50 in experiment [2] was > 53 µM (inactive).
Regarding `CC(C)(C)C(=O)/C=C/Nc1ccccc1O`, in the experiment “cells”, the IC50 was 3.27 µM (active).
With `COc1cccc(C2C(C(=O)c3ccc(C)o3)=C(O)C(=O)N2CCN2CCOCC2)c1OC` (configuration not stated), the IC50 in [1] is > 47.1 µM (inactive). In addition, the EC50 in [2] was > 53 µM (inactive).
Regarding `O=C(COc1ccccc1)NCCSCc1ccc(Cl)cc1`, in the experiment “cells”, the IC50 is 22.2 µM (active).
Take `COc1ccc(/C=C2\CCC(C3CCCC3)C2=O)cc1OC` (configuration not stated): the IC50 in [1] was > 47.1 µM (inactive). Moreover, the EC50 in experiment [2] was > 53 µM (inactive).
As to `c1ccc(C2=Nc3ccccc3OC2)cc1`, the IC50 in “cells” was 7.95 µM (active).
On to `CCC/C(=N/CC(=O)O)C1=C(O)C(C(=O)OC)C(C)(C)CC1=O` (configuration not stated), for which the IC50 in [1] is > 47.1 µM (inactive). For the same compound, the EC50 in experiment [2] was > 53 µM (inactive).
As to `O=C(OCc1c(Cl)cccc1Cl)c1ccccn1`, in the experiment “cells”, the IC50 is 10.6 µM (active).
Same read-out and setting: to `CC(C)C(=O)Nc1cccc(-c2nc3ccccc3c(=O)o2)c1` belongs 20.7 µM (active).
In the case of `CCOc1ccc(-n2c(=O)c3c4c(sc3n(CC(=O)NCc3ccco3)c2=O)CCC4)cc1`, the EC50 was 30.2 µM (active) in [3] and 27.7 µM (active) in experiment [4].
As to `CCCN1CCN(C2CCCCC2NS(=O)(=O)c2ccc(Cl)cc2)CC1` (configuration not stated), the IC50 in experiment [1] is > 47.1 µM (inactive). Also, in experiment [2], the EC50 is > 53 µM (inactive).
Turning to `CN(C)c1ccc(/C=N/c2ccc(N(C)C)cc2)cc1`, the EC50 in experiment [3] is 28.5 µM (active); in experiment [4] it was 524 µM (active).
On to `COC(=O)C(OC(=O)c1ccccc1)C(C)Br` (configuration not stated), for which the IC50 in [1] is > 47.1 µM (inactive). For the same compound, the EC50 in experiment [2] was > 53 µM (inactive).
